Experimental data from ChEMBL document CHEMBL4020754, “Isolation of the antibiotic pseudopyronine B and SAR evaluation of C3/C6 alkyl analogs” (Bioorg Med Chem Lett, 2017).
Converted amounts (≈) assume the structure as drawn.

Assays:
Assay type in all cases: functional
[1] = tested on: Escherichia coli; experiment: Antibacterial activity against Escherichia coli ATCC 15022 measured after 24 hrs; settings: ATCC 15022, 24 h
[2] = tested on: Bacillus subtilis; experiment: Antibacterial activity against Bacillus subtilis ATCC 11774 measured after 24 hrs; settings: ATCC 11774, 24 h
[3] = tested on: Staphylococcus aureus; experiment: Antibacterial activity against Staphylococcus aureus ATCC 29213 measured after 24 hrs; settings: ATCC 29213, 24 h
[4] = tested on: Pseudomonas aeruginosa; experiment: Antibacterial activity against Pseudomonas aeruginosa ATCC 9027 measured after 24 hrs; settings: ATCC 9027, 24 h

SMILES	IC50 [1]	IC50 [2]	IC50 [3]	IC50 [4]
CCCCCCCC(=O)c1c(O)cc(CCCCCCC)oc1=O	> 1000 µg/mL	27 µg/mL (≈ 80.2 µM)	48 µg/mL (≈ 143 µM)	> 1000 µg/mL
CCc1c(O)cc(C)oc1=O	300 µg/mL (≈ 1950 µM)	> 1000 µg/mL	> 1000 µg/mL	> 1000 µg/mL
CCCCCc1c(O)cc(CCCC)oc1=O	> 1000 µg/mL	23 µg/mL (≈ 96.5 µM)	4.6 µg/mL (≈ 19.3 µM)	> 1000 µg/mL
CCCCCCCCCc1c(O)cc(CCCCCCCC)oc1=O	> 1000 µg/mL	> 1000 µg/mL	> 1000 µg/mL	> 1000 µg/mL
CCC(=O)c1c(O)cc(CC)oc1=O	257 µg/mL (≈ 1310 µM)	> 1000 µg/mL	116 µg/mL (≈ 591 µM)	> 1000 µg/mL
CCCCCCc1c(O)cc(CCCCC)oc1=O	> 1000 µg/mL	3.3 µg/mL (≈ 12.4 µM)	2.4 µg/mL (≈ 9.01 µM)	> 1000 µg/mL
CCCCCCCCC(=O)c1c(O)cc(CCCCCCCC)oc1=O	> 1000 µg/mL	> 1000 µg/mL	> 1000 µg/mL	> 1000 µg/mL
CCCCCC(=O)c1c(O)cc(CCCCC)oc1=O	> 1000 µg/mL	21 µg/mL (≈ 74.9 µM)	3.8 µg/mL (≈ 13.6 µM)	> 1000 µg/mL
CCCCCCCc1cc(O)c(CCCCCC)c(=O)o1 [PSEUDOPYRONINES B]	> 1000 µg/mL	0.3 µg/mL (≈ 1.02 µM)	0.1 µg/mL (≈ 0.34 µM)	> 1000 µg/mL

Other lines, results leading:

IC50 [1]	IC50 [2]	IC50 [3]	IC50 [4]	SMILES
> 1000 µg/mL	46 µg/mL (≈ 219 µM)	33 µg/mL (≈ 157 µM)	> 1000 µg/mL	CCCCc1c(O)cc(CCC)oc1=O
223 µg/mL (≈ 884 µM)	227 µg/mL (≈ 900 µM)	24 µg/mL (≈ 95.1 µM)	> 1000 µg/mL	CCCCC(=O)c1c(O)cc(CCCC)oc1=O
> 1000 µg/mL	0.7 µg/mL (≈ 2.38 µM)	0.04 µg/mL (≈ 0.136 µM)	> 1000 µg/mL	CCCCCCCc1c(O)cc(CCCCCC)oc1=O
248 µg/mL (≈ 1110 µM)	1000 µg/mL (≈ 4460 µM)	46 µg/mL (≈ 205 µM)	> 1000 µg/mL	CCCC(=O)c1c(O)cc(CCC)oc1=O
> 1000 µg/mL	24 µg/mL (≈ 74.4 µM)	> 1000 µg/mL	> 1000 µg/mL	CCCCCCCCc1c(O)cc(CCCCCCC)oc1=O
278 µg/mL (≈ 1530 µM)	203 µg/mL (≈ 1110 µM)	244 µg/mL (≈ 1340 µM)	> 1000 µg/mL	CCCc1c(O)cc(CC)oc1=O
> 1000 µg/mL	3.5 µg/mL (≈ 11.3 µM)	1.5 µg/mL (≈ 4.86 µM)	> 1000 µg/mL	CCCCCCC(=O)c1c(O)cc(CCCCCC)oc1=O
